Data on 9 compounds can be found in publication PMC11513923, “Discovery of ZLC491 as a Potent, Selective, and Orally Bioavailable CDK12/13 PROTAC Degrader” (Journal of Medicinal Chemistry, 2024).

Where a SMILES comes first, the peptide text is derived from it. The star is where a group is joined. Cbz = O=C(OCc1ccccc1)*

One data set addresses T1, CDK13 (Homo sapiens, UniProt Q14004).
T1 construct: Immunoblotting of CDK12 and CDK13 in MDA-MB-231 cells treated with increasing concentrations of ZLC491 for 15 h; endogenous in cells; host or cells: MDA-MB-231
Description: CDK13 degradation in MDA-MB-231 cells by immunoblotting.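 As to Protein Degradation (%DMSO control, 0.3 μM) CDK13: percent of CDK13 protein degraded relative to DMSO control.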 In kind it is cell-based. Particulars: 0.3 μM; for Protein Degradation (%DMSO control, 0.3 μM) CDK13: MDA-MB-231 cells, 15 h, immunoblotting, normalized against α-tubulin; for Degradation rates of CDK13 at 0.3 μM: supplementary CSV. As for the experimental part: (§1) The degradation efficiency of the new molecules was assessed by immunoblotting after treatment with the compounds at 0.3 μM in MD-MBA-231 cells for 15 h.
(§2) To further characterize the compound, we determined the half-degradation concentration (DC50) values of ZLC491 in MDA-MB-231 cells. […] We also treated MDA-MB-231 cells with 1 μM ZLC491 at various time points.
(§3) (A) Immunoblotting of CDK12 and CDK13 in MDA-MB-231 cells treated with increasing concentrations of ZLC491 for 15 h (left). Percent remaining CDK12 and CDK13 proteins were plotted for DC50 determination (right). Protein levels were quantified using ImageJ and normalized to corresponding α-tubulin, then plotted using Graphpad Prism 8.0. The data were representative of three independent experiments; (B) immunoblotting of CDK12 and CDK13 proteins in MDA-MB-231 cells treated with ZLC491 for various time points; immunoblotting of CDK12 and CDK13 in HCC38 (C) and MDA-MB-436 (D) cells treated with increasing concentrations of ZLC491 for 15 h. α-Tubulin was used as a loading control. TEXT PRINTED IN THE PICTURE: (A) ZLC491: MDA-MB-231: CDK12 DC50 = 0.032μM; MDA-MB-231: CDK13 DC50 = 0.028μM DOUBTS OF THE COPYIST ABOUT THIS PICTURE: ZLC491, CDK12 DC50: 0.032 read from small print, the digits 3 and 2 are uncertain / ZLC491, CDK13 DC50: 0.028 read from small print, the last digit may be 8, 6 or 3
(§4) Generally, the tested cells were washed by ice-cold PBS buffer (Gibco) and lysed with an SDS lysis buffer (62.5 mM Tris, 2% w/v SDS, 10 glycerol, 50 mM DTT, 0.01% w/v bromophenol blue) on ice, after which the protein lysate samples were collected to 1.5 mL microcentrifuge tubes and treated with ultrasonic for 10 s, following with a 100 °C incubation for 10 min and a 4 °C centrifugation of 12000 rpm for 10 min. An equal amount of protein was loaded to 4–8% Bis-Tris gels and underwent an SDS-PAGE electrophoresis at 55V for 30 min and 95V for 90 min. Proteins on gels were then transferred to a polyvinylidene difluoride (PVDF) membrane (Bio-Rad) with a wet electro transfer system (Bio-Rad). The PVDF membrane was cut into bands and incubated in a blocking reagent (5% defatted milk powder dissolved in TBST) at room temperature for 1–2 h. Incubate membrane and primary antibody (at the appropriate dilution and diluent as recommended in the product webpage) at 4 °C for 12–14 h, followed with three times washes by TBST. The washed membranes were incubated in a secondary antibody solution (HRP-linked antirabbit IgG or antimouse IgG (CST), 1:2000 diluted into TBST) at room temperature for 2 h. Membranes were photographed in Amersham Imager 800 system using StarSignal plus regent (GenStar) or Omni-ECL reagent (EpiZyme). Compounds MG132, MLN4924, Bafilomycin A1 and pomalidomide were purchased from MedChemExpress (MCE) LLC.
On the technique in general: Immunoblotting shows a protein as a band on a membrane.

A further data set deals with CDK12 (Homo sapiens, UniProt Q9NYV4). Description: CDK12 degradation in MDA-MB-231 cells by immunoblotting. Particulars: 0.3 μM; for Protein Degradation (%DMSO control, 0.3 μM) CDK12: MDA-MB-231 cells, 15 h, immunoblotting, normalized against α-tubulin; for Degradation rates of CDK12 at 0.3 μM: supplementary CSV. Details: Immunoblotting of CDK12 and CDK13 in MDA-MB-231 cells treated with increasing concentrations of ZLC491 for 15 h; endogenous in cells; host or cells: MDA-MB-231. In kind it is cell-based. The procedure:
as §1, §2, §3, §4

A short description of another data set: Pharmacokinetics in rats. In kind it is in vivo, rat. The procedure:
We further evaluated the in vivo PK properties of compound ZLC491 and the counterpart 4m (without F substitution) in rats, and the results were summarized in Table 2. […] The PK profiles of F-containing compound ZLC491 were further improved.
The pharmacokinetic investigation was taken by Shanghai Medicilon Inc. (Project Code: 26048-23001-NG). Sprague–Dawley male rats (Specific pathogen Free (SPF), provided by Zhejiang Vital River Laboratory Animal Technology Co. Ltd.) were dosed with ZLC491 solution formulation (5% DMSO, 10% Solutol, 85% normal saline, 2.5 mg/kg for intravenous dose, 10 mg/kg for oral dose) or compound 4m solution formulation (5% DMSO, 10% Solutol, 85% (20%HP-β-CD), 2.5 mg/kg for intravenous dose, 10 mg/kg for oral dose). Blood samples were collected at 0.083, 0.25, 0.5, 1, 2, 4, 8, and 24 h in intravenous administration, 0.25, 0.5, 1, 2, 4, 6, 8, and 24 h in oral administration. The blood samples were collected from sets of three rats at each time point in labeled microcentrifuge tubes containing heparin sodium as an anticoagulant. Plasma samples were separated by centrifugation (2–8 °C, 6800g for 6 min) within 1 h and stored below −80 °C until bioanalysis. All samples were processed for analysis by precipitation using acetonitrile and analyzed with a partially validated LC/MS/MS method. Pharmacokinetic parameters were calculated using the noncompartmental analysis tool of WinNonlin Enterprise software.

In a further data set the test system is CDK12/13. Description: Mechanism study: pretreatment before ZLC491, immunoblotting of CDK12/13 in MDA-MB-231 cells. In kind it is cell-based, human. Particulars: 2 h pretreatment (1 μM MG132, 0.1 μM MLN4924, 0.1 μM bafilomycin, 5 μM pomalidomide, 8 μM compound 5), then 1 μM ZLC491 10 h. The procedure: We further investigated the mechanism of action of ZLC491-mediated CDK12/13 degradation. […] Additionally, pretreatment with CRBN ligand pomalidomide or the warhead compound 5 also reversed the ZLC491-mediated CDK12/13 degradation in MDA-MB-231 cells (Figure 4D,E).
Figure 4 ZLC491 induced CDK12/13 degradation in a CRBN- and proteasome-dependent fashion. Immunoblotting of CDK12 and CDK13 in MDA-MB-231 cells treated with 1 μM ZLC491 for 10 h with or without pretreatment with 1 μM MG132 (A), 0.1 μM MLN4924 (B), 0.1 μM bafilomycin (C), 5 μM pomalidomide (D) and 8 μM compound 5 (E) for 2 h; (F) immunoblotting of CDK12 and CDK13 in MDA-MB-231 cells treated with 1 μM ZLC491N for 10 h. α-Tubulin was used as a loading control.
as §4

[1] abbreviates: male, Sprague-Dawley, rat, plasma, oral bioavailability, p.o. 10 mg/kg vs i.v. 2.5 mg/kg.

Sequence of CDK12 (Q9NYV4 whole entry): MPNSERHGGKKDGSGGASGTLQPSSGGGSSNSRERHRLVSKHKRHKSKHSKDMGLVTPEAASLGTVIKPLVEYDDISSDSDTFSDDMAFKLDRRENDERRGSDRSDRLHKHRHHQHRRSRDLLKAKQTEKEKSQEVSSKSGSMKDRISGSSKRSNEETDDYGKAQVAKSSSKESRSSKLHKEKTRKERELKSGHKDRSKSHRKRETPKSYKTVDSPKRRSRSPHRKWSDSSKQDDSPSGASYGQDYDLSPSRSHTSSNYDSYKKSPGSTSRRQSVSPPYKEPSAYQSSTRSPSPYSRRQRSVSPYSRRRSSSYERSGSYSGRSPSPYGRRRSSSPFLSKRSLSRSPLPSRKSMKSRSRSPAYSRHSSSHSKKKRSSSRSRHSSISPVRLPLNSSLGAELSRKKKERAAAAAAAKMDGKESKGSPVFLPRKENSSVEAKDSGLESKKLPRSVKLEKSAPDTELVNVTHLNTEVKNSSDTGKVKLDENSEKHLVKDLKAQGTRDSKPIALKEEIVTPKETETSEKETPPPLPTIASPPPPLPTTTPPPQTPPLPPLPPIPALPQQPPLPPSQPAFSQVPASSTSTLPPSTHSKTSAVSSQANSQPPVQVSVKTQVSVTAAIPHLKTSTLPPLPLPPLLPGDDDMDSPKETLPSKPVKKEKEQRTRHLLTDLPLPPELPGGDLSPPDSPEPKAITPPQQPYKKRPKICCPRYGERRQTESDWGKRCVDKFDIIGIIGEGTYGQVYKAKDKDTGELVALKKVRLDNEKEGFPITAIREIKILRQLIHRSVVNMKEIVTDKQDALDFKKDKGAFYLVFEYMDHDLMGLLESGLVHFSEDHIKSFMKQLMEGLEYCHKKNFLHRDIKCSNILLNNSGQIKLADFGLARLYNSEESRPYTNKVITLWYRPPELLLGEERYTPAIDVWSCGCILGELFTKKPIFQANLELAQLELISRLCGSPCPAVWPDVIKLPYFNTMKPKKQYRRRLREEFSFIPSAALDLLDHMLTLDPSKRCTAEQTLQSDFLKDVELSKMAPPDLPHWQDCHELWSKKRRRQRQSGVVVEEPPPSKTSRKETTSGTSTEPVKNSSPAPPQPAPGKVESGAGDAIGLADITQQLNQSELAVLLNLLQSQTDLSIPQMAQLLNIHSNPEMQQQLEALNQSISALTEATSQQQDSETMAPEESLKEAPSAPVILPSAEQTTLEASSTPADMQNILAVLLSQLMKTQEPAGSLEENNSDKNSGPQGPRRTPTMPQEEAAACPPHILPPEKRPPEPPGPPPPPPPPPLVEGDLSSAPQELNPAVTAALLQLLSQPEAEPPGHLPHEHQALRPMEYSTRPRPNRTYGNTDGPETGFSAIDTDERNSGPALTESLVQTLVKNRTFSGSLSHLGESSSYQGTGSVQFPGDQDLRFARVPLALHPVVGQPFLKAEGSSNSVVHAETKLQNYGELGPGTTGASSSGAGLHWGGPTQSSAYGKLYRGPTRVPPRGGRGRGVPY
Sequence of CDK12 (O75909 whole entry partner): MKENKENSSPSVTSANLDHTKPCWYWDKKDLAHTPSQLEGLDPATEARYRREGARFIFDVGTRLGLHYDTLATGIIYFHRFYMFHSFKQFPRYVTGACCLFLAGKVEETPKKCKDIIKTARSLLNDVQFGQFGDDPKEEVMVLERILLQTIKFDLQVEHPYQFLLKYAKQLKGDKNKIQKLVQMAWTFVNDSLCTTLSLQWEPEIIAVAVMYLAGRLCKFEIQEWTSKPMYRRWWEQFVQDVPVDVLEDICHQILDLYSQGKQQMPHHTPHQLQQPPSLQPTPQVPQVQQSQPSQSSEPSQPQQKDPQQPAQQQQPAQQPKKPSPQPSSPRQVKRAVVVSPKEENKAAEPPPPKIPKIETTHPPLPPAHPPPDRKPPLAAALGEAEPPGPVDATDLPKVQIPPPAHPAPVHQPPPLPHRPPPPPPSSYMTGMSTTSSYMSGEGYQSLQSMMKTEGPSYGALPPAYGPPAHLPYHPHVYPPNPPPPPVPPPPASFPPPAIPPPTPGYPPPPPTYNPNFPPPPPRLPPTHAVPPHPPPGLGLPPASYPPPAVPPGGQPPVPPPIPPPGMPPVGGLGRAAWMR
T1 sequence (Q14004 whole entry): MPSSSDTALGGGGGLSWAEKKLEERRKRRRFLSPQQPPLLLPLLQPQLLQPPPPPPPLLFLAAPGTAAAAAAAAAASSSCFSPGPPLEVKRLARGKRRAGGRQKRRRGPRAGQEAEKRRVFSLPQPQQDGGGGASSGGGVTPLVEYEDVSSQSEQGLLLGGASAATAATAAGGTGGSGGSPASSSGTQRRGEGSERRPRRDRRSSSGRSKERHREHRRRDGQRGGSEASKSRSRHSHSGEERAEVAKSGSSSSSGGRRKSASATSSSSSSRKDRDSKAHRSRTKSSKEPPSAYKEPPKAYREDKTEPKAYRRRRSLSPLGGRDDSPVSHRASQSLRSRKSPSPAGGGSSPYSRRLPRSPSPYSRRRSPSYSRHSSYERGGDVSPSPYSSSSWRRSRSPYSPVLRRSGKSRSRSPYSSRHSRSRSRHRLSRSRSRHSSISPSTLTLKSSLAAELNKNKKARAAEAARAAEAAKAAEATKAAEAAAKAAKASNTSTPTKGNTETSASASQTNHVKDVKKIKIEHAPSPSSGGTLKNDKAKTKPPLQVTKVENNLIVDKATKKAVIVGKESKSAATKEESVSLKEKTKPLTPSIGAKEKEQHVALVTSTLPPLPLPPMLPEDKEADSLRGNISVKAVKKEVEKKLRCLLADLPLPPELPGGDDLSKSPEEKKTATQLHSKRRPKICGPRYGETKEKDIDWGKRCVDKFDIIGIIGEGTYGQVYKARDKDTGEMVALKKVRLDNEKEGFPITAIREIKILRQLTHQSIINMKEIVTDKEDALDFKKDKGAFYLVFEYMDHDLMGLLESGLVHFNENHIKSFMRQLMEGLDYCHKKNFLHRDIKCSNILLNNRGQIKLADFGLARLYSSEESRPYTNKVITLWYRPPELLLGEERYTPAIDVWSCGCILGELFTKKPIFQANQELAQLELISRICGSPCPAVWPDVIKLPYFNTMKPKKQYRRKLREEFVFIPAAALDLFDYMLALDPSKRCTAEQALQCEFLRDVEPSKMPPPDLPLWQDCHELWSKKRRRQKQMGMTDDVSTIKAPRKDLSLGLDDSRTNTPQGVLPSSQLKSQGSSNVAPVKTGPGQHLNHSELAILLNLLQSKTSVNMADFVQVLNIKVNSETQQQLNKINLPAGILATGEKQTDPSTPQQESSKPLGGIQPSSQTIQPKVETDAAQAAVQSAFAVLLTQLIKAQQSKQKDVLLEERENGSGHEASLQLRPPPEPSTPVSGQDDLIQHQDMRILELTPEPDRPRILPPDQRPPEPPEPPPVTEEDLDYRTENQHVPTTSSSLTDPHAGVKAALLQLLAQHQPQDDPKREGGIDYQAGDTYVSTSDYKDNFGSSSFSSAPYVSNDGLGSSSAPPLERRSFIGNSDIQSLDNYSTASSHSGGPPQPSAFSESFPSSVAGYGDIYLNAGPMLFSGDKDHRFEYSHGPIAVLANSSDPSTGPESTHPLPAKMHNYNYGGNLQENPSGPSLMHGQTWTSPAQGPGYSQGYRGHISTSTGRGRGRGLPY
T1 sequence (O75909 whole entry partner): as the sequence (O75909 whole entry partner) above

As for `N#Cc1ccc(N[C@H]2CC[C@H](N(C(=O)NCc3ccccc3)c3ccc(N4CCN(C5CCN(c6ccc7c(c6)C(=O)N(C6CCC(=O)NC6=O)C7=O)C5)CC4)cc3)CC2)nc1` (stereo partly drawn) [4l, 3-Benzyl-1-((1r,4r)-4-((5-cyanopyridin-2-yl)amino)cyclohexyl)-1-(4-(4-(1-(2-(2,6-dioxopiperidin-3-yl)-1,3-dioxoisoindolin-5-yl)pyrrolidin-3-yl)piperazin-1-yl)phenyl)urea], on CDK13, the “Protein Degradation (%DMSO control, 0.3 μM) CDK13” value is on record as 40% and the Degradation rates of CDK13 at 0.3 μM stood at 40%. At CDK12, the “Protein Degradation (%DMSO control, 0.3 μM) CDK12” value worked out at 17% and the Degradation rates of CDK12 at 0.3 μM stood at 17%.

Usually bioavailability stands for dose-corrected exposure relative to a reference, in per cent. With `N#Cc1ccc(N[C@H]2CC[C@H](N(C(=O)NCc3ccccc3)c3ccc(N4CCN(C5CCN(c6ccc7c(c6)C(=O)N(C6CCC(=O)NC6=O)C7=O)CC5)CC4)cc3)CC2)nc1` (stereo partly drawn) [4m, 3-Benzyl-1-((1r,4r)-4-((5-cyanopyridin-2-yl)amino)cyclohexyl)-1-(4-(4-(1-(2-(2,6-dioxopiperidin-3-yl)-1,3-dioxoisoindolin-5-yl)piperidin-4-yl)piperazin-1-yl)phenyl)urea], the “CL” value in “Pharmacokinetics in rats” (i.v. 2.5 mg/kg) amounted to 9.85 mL/min/kg. In the data set “Pharmacokinetics in rats” (setting [1]), the bioavailability came out at 16% and the bioavailability at 24 h is 16.5%. Moreover, at CDK13, the “Protein Degradation (%DMSO control, 0.3 μM) CDK13” value is 85% and the Degradation rates of CDK13 at 0.3 μM came to 85%. Besides, on CDK12, the “Protein Degradation (%DMSO control, 0.3 μM) CDK12” value was 70% and the Degradation rates of CDK12 at 0.3 μM was found to be 70%.

For `N#Cc1ccc(N[C@H]2CC[C@H](N(C(=O)NCc3ccccc3)c3ccc(N4CCC5(CC4)CN(c4ccc6c(c4)C(=O)N(C4CCC(=O)NC4=O)C6=O)C5)cc3)CC2)nc1` (stereo partly drawn) [4n, 3-Benzyl-1-((1r,4r)-4-((5-cyanopyridin-2-yl)amino)cyclohexyl)-1-(4-(2-(2-(2,6-dioxopiperidin-3-yl)-1,3-dioxoisoindolin-5-yl)-2,7-diazaspiro[3.5]nonan-7-yl)phenyl)urea], on CDK13, the “Protein Degradation (%DMSO control, 0.3 μM) CDK13” value is reported as 85% and the Degradation rates of CDK13 at 0.3 μM came to 85%. For the same compound, on CDK12, the “Protein Degradation (%DMSO control, 0.3 μM) CDK12” value worked out at 63% and the Degradation rates of CDK12 at 0.3 μM came to 63%.

As to `N#Cc1ccc(N[C@H]2CC[C@H](N(C(=O)NCc3ccccc3)c3ccc(N4CCC5(CC4)CCN(c4ccc6c(c4)C(=O)N(C4CCC(=O)NC4=O)C6=O)C5)cc3)CC2)nc1` (stereo partly drawn) [4o, 3-Benzyl-1-((1r,4r)-4-((5-cyanopyridin-2-yl)amino)cyclohexyl)-1-(4-(2-(2-(2,6-dioxopiperidin-3-yl)-1,3-dioxoisoindolin-5-yl)-2,8-diazaspiro[4.5]decan-8-yl)phenyl)urea], on CDK13, the “Protein Degradation (%DMSO control, 0.3 μM) CDK13” value came out at 47% and the Degradation rates of CDK13 at 0.3 μM amounted to 47%. Moreover, on CDK12, the “Protein Degradation (%DMSO control, 0.3 μM) CDK12” value is 27% and the Degradation rates of CDK12 at 0.3 μM amounted to 27%.

Consider `N#Cc1ccc(N[C@H]2CC[C@H](N(C(=O)NCc3ccccc3)c3ccc(N4CCC5(CC4)CCN(c4ccc6c(c4)C(=O)N(C4CCC(=O)NC4=O)C6=O)CC5)cc3)CC2)nc1` (stereo partly drawn) [4p, 3-Benzyl-1-((1r,4r)-4-((5-cyanopyridin-2-yl)amino)cyclohexyl)-1-(4-(9-(2-(2,6-dioxopiperidin-3-yl)-1,3-dioxoisoindolin-5-yl)-3,9-diazaspiro[5.5]undecan-3-yl)phenyl)urea], for which, on CDK13, the “Protein Degradation (%DMSO control, 0.3 μM) CDK13” value was 66% and the Degradation rates of CDK13 at 0.3 μM was determined as 66%. At CDK12, the “Protein Degradation (%DMSO control, 0.3 μM) CDK12” value was 42% and the Degradation rates of CDK12 at 0.3 μM was 42%.

As to `CC(C)C[C@@H](C=O)NC(=O)[C@H](CC(C)C)NC(=O)[C@H](CC(C)C)NC(=O)OCc1ccccc1` [MG132] (Cbz-Leu-Leu-Leu-aldehyde), the “effect of pretreatment on ZLC491-induced CDK12/13 degradation” value (from here on “effect of pretreatment”) with CDK12/13 was “significantly blocked”.

Regarding `NS(=O)(=O)OC[C@@H]1C[C@@H](n2ccc3c(N[C@H]4CCc5ccccc54)ncnc32)C[C@@H]1O` [MLN4924], the “effect of pretreatment” value in the data set with CDK12/13 is on record as “significantly blocked”.

As for `N#Cc1ccc(N[C@H]2CC[C@H](N(C(=O)NCc3ccccc3)c3ccc(N4CCNCC4)cc3)CC2)nc1` [compound 5, 3-Benzyl-1-((1r,4r)-4-((5-cyanopyridin-2-yl)amino)cyclohexyl)-1-(4-(piperazin-1-yl)phenyl)urea], in the data set on CDK12/13, the “effect of pretreatment” value was “reversed”.

Take `Nc1cccc2c1C(=O)N(C1CCC(=O)NC1=O)C2=O` (stereo not drawn) [pomalidomide]: the “effect of pretreatment” value in the data set on CDK12/13 is “reversed”.
